Source: PubChem BioAssay AID1963978 (Molecular Pharmacology Branch, DTP, NCI, 2024)

System: 616215-338-R-J1-PDC spheroids with HUVEC/MSC, viability
Test: Anticancer human tumor 616215-338-R-J1-PDC patient-derived colon adenocarcinoma cell line growth inhibition [PI3K]
Details: for IC50: curve of first compound; for viability, T/C: stronger effect = lower value; active = viability on the fitted dose curve at most 10% of control; inactive = the rest
Summary of the method: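 Stroma-containing spheroids: tumor line, pooled-donor HUVEC, hMSC. Treatments: targeted agents with PI3K inhibitors. Dosing: clinically relevant, half-log spacing, 10 microM ceiling without known Cmax. Read-out: cell viability.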

[1] = second compound 0.00316 µM, first compound 0.0316 µM
[2] = second compound 0.00316 µM, first compound 0.1 µM
[3] = second compound 0.01 µM, first compound 0.0316 µM
[4] = second compound 0.01 µM, first compound 0.1 µM
[5] = second compound 0.0316 µM, first compound 0.0316 µM
[6] = second compound 0.0316 µM, first compound 0.1 µM
[7] = second compound 0.1 µM, first compound 0.0316 µM
[8] = second compound 0.1 µM, first compound 0.1 µM
[9] = second compound 0.316 µM, first compound 0.0316 µM
[10] = second compound 0.316 µM, first compound 0.1 µM
[11] = second compound 1 µM, first compound 0.0316 µM
[12] = second compound 1 µM, first compound 0.1 µM
[13] = second compound 0.0316 µM, first compound 0.316 µM
[14] = second compound 0.0316 µM, first compound 1 µM
[15] = second compound 0.0316 µM, first compound 3.16 µM
[16] = second compound 0.0316 µM, first compound 10 µM
[17] = second compound 0.1 µM, first compound 0.316 µM
[18] = second compound 0.1 µM, first compound 1 µM
[19] = second compound 0.1 µM, first compound 3.16 µM
[20] = second compound 0.1 µM, first compound 10 µM
[21] = second compound 0.316 µM, first compound 0.316 µM
[22] = second compound 0.316 µM, first compound 1 µM
[23] = second compound 0.316 µM, first compound 3.16 µM
[24] = second compound 0.316 µM, first compound 10 µM
[25] = second compound 1 µM, first compound 0.316 µM
[26] = second compound 1 µM, first compound 1 µM
[27] = second compound 1 µM, first compound 3.16 µM
[28] = second compound 1 µM, first compound 10 µM
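Also: spheroids exposed to agents for seven days before the viability read.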

CC(C)n1nc(-c2ccc3oc(N)nc3c2)c2c(N)ncnc21 + COc1c(OCCCN2CCOCC2)ccc2c3n(c(=NC(=O)c4cnc(N)nc4)nc12)CCN3
80.3 nM: IC50 (second compound 0.0316 µM)
inactive: viability, T/C (second compound 0.00316 µM, first compound 0.000316 µM) 104% | viability, T/C (second compound 0.00316 µM, first compound 0.001 µM) 109% | viability, T/C (second compound 0.00316 µM, first compound 0.00316 µM) 97.4% | viability, T/C (second compound 0.00316 µM, first compound 0.01 µM) 105% | viability, T/C [1] 116% | viability, T/C [2] 65.6% | viability, T/C (second compound 0.01 µM, first compound 0.000316 µM) 104% | viability, T/C (second compound 0.01 µM, first compound 0.001 µM) 100% | viability, T/C (second compound 0.01 µM, first compound 0.00316 µM) 103% | viability, T/C (second compound 0.01 µM, first compound 0.01 µM) 108% | viability, T/C [3] 122% | viability, T/C [4] 67.2% | viability, T/C (second compound 0.0316 µM, first compound 0.000316 µM) 106% | viability, T/C (second compound 0.0316 µM, first compound 0.001 µM) 99.2% | viability, T/C (second compound 0.0316 µM, first compound 0.00316 µM) 117% | viability, T/C (second compound 0.0316 µM, first compound 0.01 µM) 117% | viability, T/C [5] 97.3% | viability, T/C [6] 39% | viability, T/C (second compound 0.1 µM, first compound 0.000316 µM) 96.2% | viability, T/C (second compound 0.1 µM, first compound 0.001 µM) 102% | viability, T/C (second compound 0.1 µM, first compound 0.00316 µM) 88.9% | viability, T/C (second compound 0.1 µM, first compound 0.01 µM) 68.7% | viability, T/C [7] 47.7% | viability, T/C [8] 30.1% | viability, T/C (second compound 0.316 µM, first compound 0.000316 µM) 37.9% | viability, T/C (second compound 0.316 µM, first compound 0.001 µM) 42.1% | viability, T/C (second compound 0.316 µM, first compound 0.00316 µM) 34.9% | viability, T/C (second compound 0.316 µM, first compound 0.01 µM) 45.2% | viability, T/C [9] 35.5% | viability, T/C [10] 22.1% | viability, T/C (second compound 1 µM, first compound 0.000316 µM) 24.3% | viability, T/C (second compound 1 µM, first compound 0.001 µM) 29.1% | viability, T/C (second compound 1 µM, first compound 0.00316 µM) 25.1% | viability, T/C (second compound 1 µM, first compound 0.01 µM) 27.8% | viability, T/C [11] 30.1% | viability, T/C [12] 13.2%
> 100 nM: IC50 (second compound 0.00316 µM) | IC50 (second compound 0.01 µM)
< 0.316 nM: IC50 (second compound 0.316 µM) | IC50 (second compound 1 µM)
26.2 nM: IC50 (second compound 0.1 µM)

C=CC(=O)N1CCN(c2nc(=O)n(-c3c(C)ccnc3C(C)C)c3nc(-c4c(O)cccc4F)c(F)cc23)C(C)C1 (stereo not given) + CC(Nc1ccc2c(c1)OCCn1cc(N3C(=O)OCC3C(F)F)nc1-2)C(N)=O
inactive: viability, T/C [1] 95.9% | viability, T/C [2] 101% | viability, T/C (second compound 0.00316 µM, first compound 0.316 µM) 86.8% | viability, T/C (second compound 0.00316 µM, first compound 1 µM) 103% | viability, T/C (second compound 0.00316 µM, first compound 3.16 µM) 100% | viability, T/C (second compound 0.00316 µM, first compound 10 µM) 87.5% | viability, T/C [3] 91.8% | viability, T/C [4] 100% | viability, T/C (second compound 0.01 µM, first compound 0.316 µM) 84.2% | viability, T/C (second compound 0.01 µM, first compound 1 µM) 98.1% | viability, T/C (second compound 0.01 µM, first compound 3.16 µM) 99.1% | viability, T/C (second compound 0.01 µM, first compound 10 µM) 95.6% | viability, T/C [5] 102% | viability, T/C [6] 106% | viability, T/C [13] 110% | viability, T/C [14] 103% | viability, T/C [15] 95.6% | viability, T/C [16] 90.9% | viability, T/C [7] 89.8% | viability, T/C [8] 92.6% | viability, T/C [17] 91.1% | viability, T/C [18] 97.3% | viability, T/C [19] 98% | viability, T/C [20] 84.2% | viability, T/C [9] 114% | viability, T/C [10] 99.3% | viability, T/C [21] 95.7% | viability, T/C [22] 100% | viability, T/C [23] 97.8% | viability, T/C [24] 105% | viability, T/C [11] 101% | viability, T/C [12] 96.7% | viability, T/C [25] 105% | viability, T/C [26] 97.1% | viability, T/C [27] 90.6% | viability, T/C [28] 81.6%
> 10000 nM: IC50 (second compound 0.00316 µM) | IC50 (second compound 0.01 µM) | IC50 (second compound 0.0316 µM) | IC50 (second compound 0.1 µM) | IC50 (second compound 0.316 µM) | IC50 (second compound 1 µM)

CC1(C)CCC(CN2CCN(c3ccc(C(=O)NS(=O)(=O)c4ccc(NCC5CCOCC5)c([N+](=O)[O-])c4)c(Oc4cnc5[nH]ccc5c4)c3)CC2)=C(c2ccc(Cl)cc2)C1
inactive: viability, T/C (compound 0.1 µM) 99.5% [middle of 4 runs] | viability, T/C (compound 0.316 µM) 96.5% [middle of 4 runs] | viability, T/C (compound 1 µM) 96.4% [middle of 4 runs] | viability, T/C (compound 3.16 µM) 77.8% [middle of 4 runs]

CC1(C)CCC(Nc2ncc(C(F)(F)F)c(-c3c[nH]c4c(P(C)(C)=O)c(C#N)ccc34)n2)CN1 (stereo not given) + CC(Nc1ncnc2nc[nH]c12)c1cc2cccc(Cl)c2c(=O)n1-c1ccccc1
< 31.6 nM: IC50 (second compound 1 µM)
inactive: viability, T/C [5] 53.9% | viability, T/C [6] 39% | viability, T/C [13] 44.9% | viability, T/C [14] 51.6% | viability, T/C [15] 51.8% | viability, T/C [7] 50.6% | viability, T/C [8] 37% | viability, T/C [17] 44.8% | viability, T/C [18] 45.8% | viability, T/C [19] 54% | viability, T/C [9] 44% | viability, T/C [10] 37.4% | viability, T/C [21] 41.1% | viability, T/C [22] 42.3% | viability, T/C [23] 51.3% | viability, T/C [11] 42.2% | viability, T/C [12] 41.1% | viability, T/C [25] 39.9% | viability, T/C [26] 70.7% | viability, T/C [27] 46.5% | viability, T/C (second compound 3.16 µM, first compound 0.0316 µM) 44.1% | viability, T/C (second compound 3.16 µM, first compound 0.1 µM) 39.4% | viability, T/C (second compound 3.16 µM, first compound 0.316 µM) 64.1% | viability, T/C (second compound 3.16 µM, first compound 1 µM) 57.4% | viability, T/C (second compound 3.16 µM, first compound 3.16 µM) 41.8% | viability, T/C (second compound 10 µM, first compound 0.0316 µM) 48% | viability, T/C (second compound 10 µM, first compound 0.1 µM) 51.3% | viability, T/C (second compound 10 µM, first compound 0.316 µM) 58.4% | viability, T/C (second compound 10 µM, first compound 1 µM) 48.4% | viability, T/C (second compound 10 µM, first compound 3.16 µM) 20.9%
31.6 nM: IC50 (second compound 0.0316 µM) | IC50 (second compound 0.1 µM) | IC50 (second compound 0.316 µM)
1090 nM: IC50 (second compound 3.16 µM)
714 nM: IC50 (second compound 10 µM)
active: viability, T/C [16] 0.44% | viability, T/C [20] 1.73% | viability, T/C [24] 0.53% | viability, T/C [28] 1.13% | viability, T/C (second compound 3.16 µM, first compound 10 µM) 0.36% | viability, T/C (second compound 10 µM, first compound 10 µM) 0.61%
